Assay: ocular pharmacokinetic study with rabbits implanted with ophthalmic drug delivery device 50 (LC-MS/MS tissue concentration)
Type: in vivo, New Zealand White rabbits
Conditions: device 50 implanted on outer sclera below Tenon's capsule
Description: Device 50 was constructed as shown in FIGS. 5 through 6B, with the following dimensions. […] Inner core 106 was a cylindrical tablet with a diameter of about 5.0 mm and a thickness of about 1.5 mm. […] The pharmaceutically active agent used in tablet 106 was 4,9(11)-Pregnadien-17α,21-diol-3,20-dione, an angiostatic steroid sold by Steraloids, Inc. of Wilton, N.H., and which is more fully disclosed in U.S. Pat. Nos. 5,770,592 and 5,679,666. The formulation of tablet 106 consisted of 99.75 weight percent 4,9(11)-Pregnadien-17α,21-diol-3,20-dione, and 0.25 weight percent magnesium stearate.
At one week after implantation, 4 rabbits were euthanized and their right eyes were enucleated. The device 50 was removed from the eyes, and the location of tablet 106 was marked on their sclerae. Following the removal of the anterior segment and the vitreous of each eye and inversion of the thus formed eye-cup, a 10 mm diameter circular zone of retinal tissue, concentric with and below the location of tablet 106 on the sclera, was harvested (the “target site”). […] All these tissues were separately homogenized, and the concentration of angiostatic steroid in each of these tissues was determined via an ocular pharmacokinetic study using high performance liquid chromatography and mass spectrometry analysis (LC-MS/MS). […]

- levels of angiostatic steroid in the retina and the choroid at the second and third sites (second site remote from the target site, on the other side of the optic nerve, third site between the second site and the target site): at or near zero
Compound: C[C@]12CCC(=O)C=C1CC[C@@H]1C2=CC[C@@]2(C)[C@H]1CC[C@]2(O)C(=O)CO [4,9(11)-Pregnadien-17α,21-diol-3,20-dione]
- mean concentration of angiostatic steroid in the retina and the choroid at the target site as a function of time (right eye, tablet 99.75 wt% drug, target site below tablet, 1, 3, 6, 9, 12 weeks after implantation, up to twelve weeks): pharmaceutically effective and generally constant amount

Source: patent US7943162B2, “Drug delivery device” (Alcon, Inc., priority 1999, dated 2011)
